Columns and labels:
[1] = tested on: Tobacco Smoke Induced Pulmonary Inflammation; assay: Pre-clinical mouse model of COPD inflammation: tobacco smoke induced pulmonary inflammation, BAL cell counts; assay type: in vivo; details: mice, intranasal, BAL 24 h after final TS exposure
Description: Pre-Clinical Mouse Model of COPD Inflammation—Tobacco Smoke Induced Pulmonary Inflammation
Protocols for the exposure of mice to TS, obtaining bronchoalveolar lavage (BAL), preparation of cytospin slides for differential cell counts are as outlined below.
Exposure of Mice to TS Daily for 4 or 11 Consecutive Days
In this exposure protocol, mice were exposed in groups of 5 in individual clear polycarbonate chambers (27 cm×16 cm×12 cm). The TS from the cigarettes was allowed to enter the exposure chambers at a flow rate of 100 ml/min. In order to minimise any potential problems caused by repeated exposure to a high level of TS (6 cigarettes), the exposure of the mice to TS was increased gradually over the exposure period to a maximum of 6 cigarettes. The exposure schedule used for 4 days was as follows:
The exposure schedule used for 11 days exposure was as follows:
A further group of mice were exposed to air on a daily basis for equivalent lengths of time as controls (no TS exposure).
Bronchoalveolar Lavage (BAL) Analysis
Bronchoalveolar lavage was performed as follows: the trachea was cannulated using a Portex nylon intravenous cannula (pink luer fitting) shortened to approximately 8 mm. Phosphate buffered saline (PBS) was used as the lavage fluid. A volume of 0.4 ml was gently instilled and withdrawn 3 times using a 1 ml syringe and then placed in an Eppendorf tube and kept on ice prior to subsequent determinations.
Lavage fluid was separated from cells by centrifugation and the supernatant decanted and frozen for subsequent analysis. The cell pellet was re-suspended in a known volume of PBS and total cell numbers calculated by counting a stained (Turks stain) aliquot under a microscope using a haemocytometer.
Differential Cell Counts were Performed as Follows:
The residual cell pellet was diluted to approximately 10^5 cells per ml. A volume of 500 μl was placed in the funnel of a cytospin slide and centrifuged for 8 min at 800 rpm. The slide was air dried and stained using ‘Kwik-Diff’ solutions (Shandon) as per the proprietary instructions. When dried and cover-slipped, differential cells were counted using light microscopy. Up to 400 cells were counted by unbiased operator using light microscopy. Cells were differentiated using standard morphometric techniques.
Rodents such as mice and rats are obligate nasal breathers thus oral delivery of test materials (such as therapeutic agents) for inhalation will not produce good lung exposure. As a consequence, delivery of therapeutic agents to the lungs in rodents is generally achieved by intra-nasal, intra-tracheal or inhalation by whole body aerosol exposure in a chamber.
The chamber method utilises large amounts of test material and is generally reserved for inhalation toxicology studies rather than pharmacological efficacy studies. Intra-tracheal administration is a very efficient delivery method as almost all of the test material is delivered to the lungs, but this is quite an invasive technique. For studies in the mouse particularly, it is also quite technically demanding as the diameter of the trachea is quite small. The intranasal route is less invasive than the intra-tracheal route and so is particularly suitable for repeat dosing studies such as the 4-11 day mouse model described below.
The control group of mice received vehicle 1 hr prior to being exposed to air daily for a maximum of 50 minutes per day. BAL was performed 24 h following the final TS exposure. All compounds were dosed as the HCl salt with doses corrected as base.
[…]
Data Management and Statistical Analysis
All results are presented as individual data points for each animal and the mean value was calculated for each group.

[2] = target: T1, PPARγ receptor (Homo sapiens, UniProt P37231); details: page 13 of WO2007100027; cited from earlier work
T1 sequence (P37231 1-505): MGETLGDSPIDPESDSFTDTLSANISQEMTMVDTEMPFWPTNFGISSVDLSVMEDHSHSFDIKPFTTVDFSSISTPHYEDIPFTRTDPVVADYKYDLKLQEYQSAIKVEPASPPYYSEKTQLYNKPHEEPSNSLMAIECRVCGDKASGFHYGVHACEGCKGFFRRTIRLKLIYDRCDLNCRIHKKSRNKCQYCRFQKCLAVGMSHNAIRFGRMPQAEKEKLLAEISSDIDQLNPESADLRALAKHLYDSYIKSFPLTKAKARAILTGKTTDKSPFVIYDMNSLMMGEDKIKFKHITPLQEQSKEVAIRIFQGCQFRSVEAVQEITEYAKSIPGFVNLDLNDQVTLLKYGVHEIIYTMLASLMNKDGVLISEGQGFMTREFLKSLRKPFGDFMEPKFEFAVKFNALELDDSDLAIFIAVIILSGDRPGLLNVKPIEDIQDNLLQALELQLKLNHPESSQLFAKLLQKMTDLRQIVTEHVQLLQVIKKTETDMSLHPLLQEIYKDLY

[3] = cited from earlier work
[4] = tested on: rodent diabetes model; details: oral administration; cited from earlier work
[5] = 1 μg/kg, pioglitazone experiment, FIG. 1
[6] = 1 μg/kg, pioglitazone experiment, FIG. 2
[7] = 3 μg/kg, pioglitazone experiment, FIG. 1
[8] = 3 μg/kg, pioglitazone experiment, FIG. 2
[9] = 3 μg/kg, rosiglitazone experiment, FIG. 3
[10] = 3 μg/kg, rosiglitazone experiment, FIG. 4
[11] = 10 μg/kg, rosiglitazone experiment, FIG. 3
[12] = 10 μg/kg, rosiglitazone experiment, FIG. 4

| SMILES | BAL cell influx (total BAL cells) induced by TS [1, 7] | BAL neutrophil numbers induced by TS exposure [1, 8] | BAL cell influx (total BAL cells) induced by TS [1, 11] | BAL neutrophil numbers induced by TS exposure [1, 12] | further results |
| --- | --- | --- | --- | --- | --- |
| CCc1ccc(CCOc2ccc(C[C@@H]3SC(=O)NC3=O)cc2)nc1.Cl [Example 6, (5S)-5-{4-[2-(5-ethylpyridin-2-yl)ethoxy]benzyl}-1,3-thiazolidine-2,4-dione hydrochloride] | failed to inhibit | ineffective | – | – | BAL cell influx (total BAL cells) induced by TS [1, 5]: failed to inhibit; BAL neutrophil numbers induced by TS exposure [1, 6]: ineffective |
| COc1ccc2nc(COc3ccc(CC4SC(=O)NC4=O)cc3)n(C)c2c1 (centres unmarked) [Rivoglitazone] | – | – | – | – | receptor binding affinity, 5S versus 5R enantiomer [2]: 5S enantiomer also has higher receptor binding affinity than the 5R enantiomer |
| CN(CCOc1ccc(C[C@H]2SC(=O)NC2=O)cc1)c1ccccn1.Cl [Example 8, (5R)-5-(4-{2-[methyl(pyridin-2-yl)amino]ethoxy}benzyl)-1,3-thiazolidine-2,4-dione hydrochloride] | – | – | significantly inhibited | significantly inhibited | BAL cell influx (total BAL cells) induced by TS [1, 9]: significantly inhibited; BAL neutrophil numbers induced by TS exposure [1, 10]: significantly inhibited |
| CN(CCOc1ccc(CC2SC(=O)NC2=O)cc1)c1ccccn1 (racemic) [Racemic rosiglitazone, 5-(4-{2-[methyl (pyridin-2-yl)amino]ethoxy]benzyl}-1,3-thiazolidine-2,4-dione, reference compound] | – | – | significantly inhibited | significantly inhibited | – |
| CCc1ccc(CCOc2ccc(CC3SC(=O)NC3=O)cc2)nc1 (racemic) [Racemic pioglitazone, 5-{4-[2-(5-ethylpyridin-2-yl)ethoxy]benzyl}-1,3-thiazolidine-2,4-dione, reference compound] | significantly inhibited | significantly inhibited | – | – | interconversion of the two enantiomers in vivo [3]: interconvert in vivo; activity of racemate versus individual enantiomers in a rodent diabetes model [4]: no difference in activity |
| CCc1ccc(CCOc2ccc(C[C@H]3SC(=O)NC3=O)cc2)nc1.Cl [Example 4, (5R)-5-{4-[2-(5-ethylpyridin-2-yl)ethoxy]benzyl}-1,3-thiazolidine-2,4-dione hydrochloride] | significantly inhibited | significantly inhibited | – | – | BAL cell influx (total BAL cells) induced by TS [1, 5]: significantly inhibited; BAL neutrophil numbers induced by TS exposure [1, 6]: significantly inhibited |
| CN(CCOc1ccc(C[C@@H]2SC(=O)NC2=O)cc1)c1ccccn1.Cl [Example 9, (5S)-5-(4-{2-[methyl(pyridin-2-yl)amino]ethoxy}benzyl)-1,3-thiazolidine-2,4-dione hydrochloride monohydrate] | – | – | failed to inhibit | ineffective | BAL cell influx (total BAL cells) induced by TS [1, 9]: failed to inhibit; BAL neutrophil numbers induced by TS exposure [1, 10]: ineffective |

— US8815837B2, “Respiratory disease treatment” (Pulmagen Therapeutics (Inflammation) Limited, priority 2008, dated 2014)
